Measured values taken from BindingDB's records for patent US11091471 (Hoffmann-La Roche, 2021).

Biological target: Gamma-aminobutyric acid receptor subunit gamma-2 / Gamma-aminobutyric acid receptor subunit alpha-5 (Homo sapiens, UniProt P18507+P31644)
Assay: Electrophysiology
Description: Electrophysiological experiments were performed on days 3 to 5 after the micro-injection of mRNA. During the experiment the oocytes were constantly superfused by a solution containing (in mM) NaCl 90, KCl 1, HEPES 5, MgCl2 1, CaCl2 1 (pH 7.4). Oocytes were impaled by two glass microelectrodes (resistance: 0.4 MΩ) which were filled with a solution containing KCl 1M+K-acetate 1.5 M and voltage-clamped to −80 mV. The recordings were performed at room temperature using the Roboocyte two-electrode voltage clamp system (Multichannelsystem). After an initial equilibration period of 1.5 min GABA was added for 1.5 min at a concentration evoking approximately 20% of a maximal current response (EC20). After another rest interval of 2.5 min GABA was again added evoking a response of similar amplitude and shape. 0.5 min after the onset of this second GABA application the test compound, at a concentration corresponding to approximatively 30 fold its Ki, was added while GABA was still present. Current traces were recorded at a digitization rate of 10 Hz during and shortly before and after the GABA application.

Chain of Gamma-aminobutyric acid receptor subunit gamma-2 / Gamma-aminobutyric acid receptor subunit alpha-5 (P18507 40-475 limits assumed): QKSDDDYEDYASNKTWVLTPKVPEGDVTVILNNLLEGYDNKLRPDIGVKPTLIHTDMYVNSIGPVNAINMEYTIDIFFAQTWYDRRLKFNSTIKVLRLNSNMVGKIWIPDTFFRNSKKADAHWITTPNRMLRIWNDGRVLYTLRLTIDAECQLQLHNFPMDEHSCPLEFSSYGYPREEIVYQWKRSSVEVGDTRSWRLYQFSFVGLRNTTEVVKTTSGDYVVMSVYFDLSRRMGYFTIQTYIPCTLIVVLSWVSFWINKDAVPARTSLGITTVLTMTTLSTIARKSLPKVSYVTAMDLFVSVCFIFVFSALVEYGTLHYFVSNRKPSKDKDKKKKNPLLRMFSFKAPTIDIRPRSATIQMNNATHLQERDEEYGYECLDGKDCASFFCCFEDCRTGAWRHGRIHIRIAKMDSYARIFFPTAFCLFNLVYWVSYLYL
Chain of Gamma-aminobutyric acid receptor subunit gamma-2 / Gamma-aminobutyric acid receptor subunit alpha-5 (P31644 32-462 limits assumed): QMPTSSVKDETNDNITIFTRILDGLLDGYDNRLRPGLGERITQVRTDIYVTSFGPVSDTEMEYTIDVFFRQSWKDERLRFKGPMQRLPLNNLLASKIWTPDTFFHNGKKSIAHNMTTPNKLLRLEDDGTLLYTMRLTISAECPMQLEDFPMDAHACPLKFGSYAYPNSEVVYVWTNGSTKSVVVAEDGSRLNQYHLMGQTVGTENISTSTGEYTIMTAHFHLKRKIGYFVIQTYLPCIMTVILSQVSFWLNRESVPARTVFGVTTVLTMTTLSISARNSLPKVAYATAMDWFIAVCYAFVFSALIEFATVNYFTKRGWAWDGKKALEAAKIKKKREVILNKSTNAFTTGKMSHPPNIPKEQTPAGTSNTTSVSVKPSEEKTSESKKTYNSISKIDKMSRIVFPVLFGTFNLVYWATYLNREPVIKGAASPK

Cc1onc(-c2ccc(Cl)nc2)c1COc1ccc(C(=O)N[C@H]2CCOC2)nn1 [US11091471, Example 160]
Ki: 9.3 nM
